From patent EP2459571B1, “NITROIMIDAZOOXAZINES AND THEIR USES IN ANTI-TUBERCULAR THERAPY” (priority 2009, dated 2011)
In brackets after ≈: the same amount, converted by molar mass.

How the values were obtained:
[1] = tested on: replicating Mycobacterium tuberculosis; test: MIC, microplate Alamar blue assay (MABA), 8 day; format: cell-based; conditions: 192 h, read-out: MIC MABA (aerobic)
[2] = tested on: M. tuberculosis bacteria in the non-replicating state; test: microbe, parasite or virus in culture; format: cell-based; conditions: Mycobacterium tuberculosis, 264 h, low oxygen, 11 day, read-out: MIC LORA (anaerobic)
[3] = tested on: M. tuberculosis Erdman; design: species or system BALB/c mice; conditions: mouse, po, 100 mg/kg
[4] = tested on: M. tuberculosis Erdman; format: in vivo, BALB/c mice; conditions: mouse, in vivo, po, 100 mg/kg
[5] = CD-1 mice, oral, 40 mg/kg; for t½ (h) plasma: suspension in 0.5% carboxymethylcellulose/0.08% Tween 80
[6] = in vivo; conditions: mouse, po, 40 mg/kg
[7] = Stability to human liver microsomes; format: in vitro ADME; conditions: pH 7.4, 37 °C, 0.5 mg/mL protein, NADPH regenerating system, 60 min
[8] = Stability to mouse liver microsomes; format: in vitro ADME, CD-1 mouse; conditions: pH 7.4, 37 °C, 0.5 mg/mL protein, NADPH regenerating system, 60 min

SMILES	MIC [1]	MIC [2]	In vivo efficacy vs PA-824, Acute [3]	In vivo efficacy vs PA-824, Chronic [4]	t½ (h) plasma [5]	AUC [6]	Cmax plasma [5]	remaining at 1 h, 1 µM [7]	remaining at 1 h, 1 µM [8]
O=[N+]([O-])c1cn2c(n1)OC[C@@H](OCc1ccc(-c3ccc(OC(F)(F)F)cc3)cn1)C2 [compound 7, (6S)-2-Nitro-6-({5-[4-(trifluoromethoxy)phenyl]-2-pyridinyl}methoxy)-6,7-dihydro-5H-imidazo[2,1-b][1,3]oxazine]	0.065 µM (≈ 0.0284 µg/mL)	3.7 µM (≈ 1.61 µg/mL)	27	0.9	5.4 h	427000 ng·h/mL			
O=[N+]([O-])c1cn2c(n1)OC[C@@H](OCc1ccc(-c3ccc(C(F)(F)F)cn3)cc1)C2 [compound 8, (6S)-2-Nitro-6-({4-[5-(trifluoromethyl)-2-pyridinyl]benzyl}oxy)-6,7-dihydro-5H-imidazo[2,1-b][1,3]oxazine]	0.06 µM (≈ 0.0252 µg/mL)	1 µM (≈ 0.42 µg/mL)	33	1.7	8.8 h	67300 ng·h/mL	1100 ng/mL		
O=[N+]([O-])c1cn2c(n1)OC[C@@H](OCc1ccn(-c3ccc(OC(F)(F)F)cc3)n1)C2 [compound 10, (6S)-2-nitro-6-({1-[4-(trifluoromethoxy)phenyl]-1H-pyrazol-3-yl}methoxy)-6,7-dihydro-5H-imidazo[2,1-A][1,3]oxazine]	0.05 µM (≈ 0.0213 µg/mL)	0.61 µM (≈ 0.259 µg/mL)	41			31500 ng·h/mL		87%	67%
O=[N+]([O-])c1cn2c(n1)OC[C@@H](OCc1ccc(-c3ccc(OC(F)(F)F)cc3)cc1F)C2 [compound 12, (6S)-6-{[3-Fluoro-4'-(trifluoromethoxy)[1,1'-biphenyl]-4-yl]methoxy}-2-nitro-6,7-dihydro-5H-imidazo[2,1-b][1,3]oxazine]	0.017 µM (≈ 0.00771 µg/mL)	1.2 µM (≈ 0.544 µg/mL)	33	16		549000 ng·h/mL	6700 ng/mL		
O=[N+]([O-])c1cn2c(n1)OC[C@@H](OCc1ccc(Cc3ccc(OC(F)(F)F)cc3)cc1)C2 [compound 17, (6S)-2-Nitro-6-({4-[4-(trifluoromethoxy)benzyl]benzyl}oxy)-6,7-dihydro-5H-imidazo[2,1-b][1,3]oxazine]	0.02 µM (≈ 0.00899 µg/mL)	1.1 µM (≈ 0.494 µg/mL)						85%	70%
O=[N+]([O-])c1cn2c(n1)OC[C@@H](OCc1ccc(C#Cc3ccc(C(F)(F)F)nc3)cn1)C2 [compound 25, (6S)-2-Nitro-6-[(5-{[6-(trifluoromethyl)-3-pyridinyl]ethynyl}-2-pyridinyl)methoxy]-6,7-dihydro-5H-imidazo[2,1-b][1,3]oxazine]	0.035 µM (≈ 0.0156 µg/mL)	0.74 µM (≈ 0.33 µg/mL)						88%	91%
O=[N+]([O-])c1cn2c(n1)OC[C@@H](OCC#Cc1ccc(-c3ccc(OC(F)(F)F)cc3)cc1)C2 [compound 30, (6S)-2-Nitro-6-({3-[4'-(trifluoromethoxy)[1,1'-biphenyl]-4-yl]-2-propynyl}oxy)-6,7-dihydro-5H-imidazo[2,1-b][1,3]oxazine]	0.16 µM (≈ 0.0735 µg/mL)	0.99 µM (≈ 0.455 µg/mL)	89	11	7.5 h	13600 ng·h/mL	570 ng/mL		
O=[N+]([O-])c1cn2c(n1)OC[C@@H](OCc1ccc(/C=C/c3ccc(OC(F)(F)F)cc3)cc1)C2 [compound 31, (6S)-2-Nitro-6-[(4-{(E)-2-[4-(trifluoromethoxy)phenyl]ethenyl}benzyl)oxy]-6,7-dihydro-5H-imidazo[2,1-b][1,3]oxazine]	0.02 µM (≈ 0.00923 µg/mL)	27 µM (≈ 12.5 µg/mL)	5.8					99%	98%
